Source: patent publication US20120015907A1, “Furopyridine compounds and uses thereof” (NOVARTIS AG, priority 2010, published 2012)
Values joined by “and” are separate entries in the source; they are usually repeats but may differ in a detail not shown here. Identical values can stand only once.

The compounds below were run against T1, HCV polymerase (Hepatitis C virus genotype 1b, UniProt Q9WMX2) (assay: biochemical). Details: NS5B polymerase IC50 μM, polymerase assay of Biological Example 1.
T1 construct: (His)6 (C)
Excerpt: A number of assays have been published to assess these activities. A general method that assesses the gross increase of HCV virus in culture was disclosed in U.S. Pat. No. 5,738,985 to Miles et al. In vitro assays have been reported in Ferrari et al. Jnl. of Vir., 73:1649-1654, 1999; Ishii et al., Hepatology, 29:1227-1235, 1999; Lohmann et al., Jnl of Bio. Chem., 274:10807-10815, 1999; and Yamashita et al., Jnl. of Bio. Chem., 273:15479-15486, 1998.
WO 97/12033, filed on Sep. 27, 1996, by Emory University, listing C. Hagedorn and A. Reinoldus as inventors, which claims priority to U.S. Provisional Patent Application Ser. No. 60/004,383, filed on September 1995, described an HCV polymerase assay that can be used to evaluate the activity of the of the compounds described herein. Another HCV polymerase assay has been reported by Bartholomeusz, et al., Hepatitis C Virus (HCV) RNA polymerase assay using cloned HCV non-structural proteins; Antiviral Therapy 1996:1(Supp 4) 18-24.

SMILES	IC50
CCOP(C)(=O)CCCCCN(c1nc2oc(-c3ccc(CC)cc3)c(C(=O)NC)c2cc1I)S(C)(=O)=O (stereo not shown) [Example 23.9992, ethyl 5-(N-(2-(4-ethylphenyl)-5-iodo-3-(methylcarbamoyl)furo[2,3-b]pyridin-6-yl)methylsulfonamido)pentyl (methyl)phosphinate]	0.02 µM

Same assay, conditions: polymerase assay of Biological Example 1; read-out: NS5B polymerase IC50

IC50	SMILES
0.023 µM	CNC(=O)c1c(-c2ccc(Oc3ccccc3F)cc2)oc2nc(N(CCCCC(=O)O)S(C)(=O)=O)c(C3CC3)cc12 [Example 27.3, 5-(N-(5-cyclopropyl-2-(4-(2-fluorophenoxy)phenyl)-3-(methylcarbamoyl)furo[2,3-b]pyridin-6-yl)methylsulfonamido) pentanoic acid]
0.003 µM	CNC(=O)c1c(-c2ccc(C)cc2)oc2nc(N(CCCC3(C(=O)O)CCN(C)CC3)S(C)(=O)=O)c(C3CC3)cc12 [Example 29.99993, 4-(3-(N-(5-cyclopropyl-3-(methylcarbamoyl)-2-p-tolylfuro[2,3-b]pyridin-6-yl)methylsulfonamido)propyl)-1-methylpiperidine-4-carboxylic acid]
0.02 µM	CNC(=O)c1c(-c2ccc(C)cc2)oc2nc(N(CCC[C@H](C)C(=O)NCCCC(=O)O)S(C)(=O)=O)c(C3CC3)cc12 [Example 29.999991, (S)-4-(5-(N-(5-cyclopropyl-3-(methylcarbamoyl)-2-p-tolylfuro[2,3-b]pyridin-6-yl)methylsulfonamido)-2-methylpentanamido)butanoic acid]
0.003 µM	CNC(=O)c1c(-c2ccc(C)cc2)oc2nc(N(CCCC(C)(CCOC)C(=O)O)S(C)(=O)=O)c(C3CC3)cc12 (stereo not shown) [Example 42.1, 5-(N-(5-cyclopropyl-3-(methylcarbamoyl)-2-p-tolylfuro[2,3-b]pyridin-6-yl)methylsulfonamido)-2-(2-methoxyethyl)-2-methylpentanoic acid]
0.032 µM	CNC(=O)c1c(-c2ccc(C)cc2)oc2nc(N(CCOCCC3(C(=O)O)CCOCC3)S(C)(=O)=O)c(C3CC3)cc12 [Example 29.99995, 4-(2-(2-(N-(5-cyclopropyl-3-(methylcarbamoyl)-2-p-tolylfuro[2,3-b]pyridin-6-yl)methylsulfonamido)ethoxy)ethyl)tetrahydro-2H-pyran-4-carboxylic acid]
0.668 µM	CNC(=O)c1c(-c2ccc(C)cc2)oc2nc(N(CCC[C@@H](C)C(=O)N[C@@H](CO)Cc3ccccc3)S(C)(=O)=O)c(C3CC3)cc12 [Example 47.1]
0.048 µM	CNC(=O)c1c(-c2ccc(F)cc2)oc2nc3c(cc12)C(C)CCCCCN3S(C)(=O)=O (stereo not shown) [Example 37, 2-(4-Fluoro-phenyl)-11-methanesulfonyl-5-methyl-6,7,8,9,10,11-hexahydro-5H-1-oxa-11,12-diaza-cyclonona[f]indene-3-carboxylic acid methylamide]
0.003 µM	CNC(=O)c1c(-c2ccc(F)cc2)oc2nc(N(CCC3CCS(=O)(=O)C3)S(C)(=O)=O)c(C3CC3)cc12 (stereo not shown) [Example 25.91, 5-Cyclopropyl-6-{[2-(1,1-dioxo-tetrahydro-thiophen-3-yl)-ethyl]-methanesulfonyl-amino}-2-(4-fluoro-phenyl)-furo[2,3-b]pyridine-3-carboxylic acid methylamide]
0.001 µM	CNC(=O)c1c(-c2ccc(C)cc2)oc2nc(N(CCCCC(C)(C)C(=O)O)S(C)(=O)=O)c(C3CC3)cc12 [Example 29.2, 6-(N-(5-cyclopropyl-3-(methylcarbamoyl)-2-p-tolylfuro[2,3-b]pyridin-6-yl)methylsulfonamido)-2,2-dimethylhexanoic acid]
0.003 µM	CNC(=O)c1c(-c2ccc(C)cc2)oc2nc(N(CCCC3CCCC3C(=O)O)S(C)(=O)=O)c(C3CC3)cc12 (stereo not shown) [Example 29.4, 2-(3-(N-(5-cyclopropyl-3-(methylcarbamoyl)-2-p-tolylfuro[2,3-b]pyridin-6-yl)methylsulfonamido)propyl) cyclopentanecarboxylic acid]

Second part, the compound before the results:

SMILES	IC50
CCc1cc2c(C(=O)NC)c(-c3ccc(F)cc3)oc2nc1N(CCc1ccncc1)S(C)(=O)=O [Example 21.996, 5-ethyl-2-(4-fluorophenyl)-N-methyl-6-(N-(2-(pyridin-4-yl)ethyl)methylsulfonamido)furo[2,3-b]pyridine-3-carboxamide]	0.094 µM
CNC(=O)c1c(-c2ccc(C)cc2)oc2nc(N(CCCCO)S(C)(=O)=O)c(I)cc12 [Example 23.9996, 6-(N-(4-hydroxybutyl)methylsulfonamido)-5-iodo-N-methyl-2-p-tolylfuro[2,3-b]pyridine-3-carboxamide]	0.019 µM
CNC(=O)c1c(-c2ccc(C(F)(F)F)cc2)oc2nc(N(C)S(C)(=O)=O)c(I)cc12 [Example 2.91, 5-iodo-N-methyl-6-(N-methylmethylsulfonamide)-2-(4-(trifluoromethyl)phenyl)furo[2,3-b]pyridine-3-carboxamide]	0.802 µM
CNC(=O)c1c(-c2ccc(F)cc2)oc2nc(N(C)S(C)(=O)=O)c(CCCCC(N)=O)cc12 [Example 4.95, 5-(5-amino-5-oxopentyl)-2-(4-fluorophenyl)-N-methyl-6-(N-methylmethylsulfonamido)furo[2,3-b]pyridine-3-carboxamide]	0.016 µM
CCc1cc2c(C(=O)NC)c(-c3ccc(F)cc3)oc2nc1N(CCCC(=O)N(C)C)S(C)(=O)=O [Example 22.96, 6-(N-(4-(dimethylamino)-4-oxobutyl)methylsulfonamido)-5-ethyl-2-(4-fluorophenyl)-N-methylfuro[2,3-b]pyridine-3-carboxamide]	0.131 µM
CNC(=O)c1c(-c2ccc(F)cc2)oc2nc(N(C)S(C)(=O)=O)c(CCCS(C)(=O)=O)cc12 [Example 4.94, 2-(4-fluorophenyl)-N-methyl-6-(N-methylmethylsulfonamido)-5-(3-(methylsulfonyl)propyl)furo[2,3-b]pyridine-3-carboxamide]	0.208 µM
CCc1cc2c(C(=O)NC)c(-c3ccc(F)cc3)oc2nc1N(CCCC(C)(C)O)S(C)(=O)=O [Example 22.94, 5-ethyl-2-(4-fluorophenyl)-6-(N-(4-hydroxy-4-methylpentyl)methylsulfonamido)-N-methylfuro[2,3-b]pyridine-3-carboxamide]	0.031 µM
CNC(=O)c1c(-c2ccc(F)cc2)oc2nc(N(C)S(C)(=O)=O)c(C)cc12 [Example 2.92, 2-(4-fluorophenyl)-N,5-dimethyl-6-(N-methylmethylsulfonamido)furo[2,3-b]pyridine-3-carboxamide]	0.256 µM
C=Cc1cc2c(C(=O)NC)c(-c3ccc(F)cc3)oc2nc1N(CCCCC(=O)O)S(C)(=O)=O [Example 24.1, 5-(N-(2-(4-fluorophenyl)-3-(methylcarbamoyl)-5-vinylfuro[2,3-b]pyridin-6-yl)methylsulfonamido) pentanoic acid]	0.078 µM
CNC(=O)c1c(-c2ccc(F)cc2)oc2nc(N(CCCNS(=O)(=O)c3ccccc3[N+](=O)[O-])S(C)(=O)=O)c(I)cc12 [Example 23.993, 2-(4-fluorophenyl)-5-iodo-N-methyl-6-(N-(3-(2-nitrophenylsulfonamido)propyl)methylsulfonamido) furo[2,3-b]pyridine-3-carboxamide]	0.125 µM
CNC(=O)c1c(-c2ccc(C)cc2)oc2nc(N(CCCNS(=O)(=O)C(F)(F)F)S(C)(=O)=O)c(C3CC3)cc12 [Example 23.999992, 5-cyclopropyl-N-methyl-2-p-tolyl-6-(N-(3-(trifluoromethylsulfonamido)propyl)methylsulfonamido) furo[2,3-b]pyridine-3-carboxamide]	0.002 µM
CNC(=O)c1c(-c2ccc(F)cc2)oc2nc(N(CCCn3ccnc3)S(C)(=O)=O)c(I)cc12 [Example 23.5, 6-(N-(3-(1H-imidazol-1-yl)propyl)methylsulfonamido)-2-(4-fluorophenyl)-5-iodo-N-methylfuro[2,3-b]pyridine-3-carboxamide]	0.151 µM and 0.035 µM
CNC(=O)c1c(-c2ccc(F)cc2)oc2nc(N(CCN3CCOCC3)S(C)(=O)=O)c(I)cc12 [Example 18.4, 2-(4-fluorophenyl)-5-iodo-N-methyl-6-(N-(2-morpholinoethyl)methylsulfonamido)furo[2,3-b]pyridine-3-carboxamide]	0.26 µM
CCc1cc2c(C(=O)NC)c(-c3ccc(F)cc3)oc2nc1N(CCCS(=O)(=O)N1CCCC1)S(C)(=O)=O [Example 22.91, 5-ethyl-2-(4-fluorophenyl)-N-methyl-6-(N-(3-(pyrrolidin-1-ylsulfonyl)propyl)methylsulfonamido)furo[2,3-b]pyridine-3-carboxamide]	0.034 µM
CNC(=O)c1c(-c2ccc(F)cc2)oc2nc(N(C)S(C)(=O)=O)c(CCCC(=O)N3CCC[C@H]3C(N)=O)cc12 [Example 4.4, (S)-5-(4-(2-carbamoylpyrrolidin-1-yl)-4-oxobutyl)-2-(4-fluorophenyl)-N-methyl-6-(N-methylmethylsulfonamido)furo[2,3-b]pyridine-3-carboxamide]	0.2 µM
CNC(=O)c1c(-c2ccc(F)cc2)oc2nc(N(CCCN3CCNC3=O)S(C)(=O)=O)c(I)cc12 [Example 18.91, 2-(4-fluorophenyl)-5-iodo-N-methyl-6-(N-(3-(2-oxoimidazolidin-1-yl)propyl)methylsulfonamido)furo[2,3-b]pyridine-3-carboxamide]	0.133 µM
CN(c1nc2oc(-c3ccc(F)cc3)c(C(N)=O)c2cc1C1CC1)S(C)(=O)=O [Example 2.6]	0.297 µM
